Reference: patent US20110275573A1, “TISSUE ADHESIVE” (METAMOREFIX LTD., priority 2008, published 2011)
“Also recorded” adds a separate entry of the source.

What was measured:
[1] = test system: human foreskin fibroblasts (FF1); assay: Cell attachment assay in monolayers (peptide-coated Sepharose beads); assay type: cell-based
Method: (§1) A peptide solution in coupling buffer prepared as above was immediately added to the activated Sepharose beads Sepharose beads were used to fixate the peptides for all in-vitro assays in the column to a final binding of 6 mg peptide per ml gel. The column was closed and shaken overnight at 4° C. very gently to avoid mechanical breakage of the beads. The bottom cap of the column was removed and the solution of ligand/buffer was collected as the Sepharose Beads settled on the filter. The OD280 of the collected buffer was checked to determine the concentration of uncoupled peptide. The gel was washed/aspirated with 5 volumes (˜2 ml) of coupling buffer and gently mixed. Any remaining active groups on the gel were blocked with blocking buffer for 2 hours at room temperature or overnight at 4° C. The Sepharose beads gel with peptides was then washed by 2 cycles each of 5 gel volumes of: • a. 0.1 M Acetate buffer • b. Coupling buffer • c. Storing buffer: azide-coupling buffer: coupling buffer containing 0.1% NaN3 (final concentration)
(§2) The tested peptides (Table 1) were coupled to Sepharose Beads at two concentrations: 6 and 12 mg/ml Sepharose Beads. Sepharose Beads that underwent the coupling procedure without peptide addition (“naked Sepharose Beads”) served as a negative control (referred to herein as “Sepharose Beads-blank”). A cell binding assay was performed with 2 normal cell types: bovine aortal endothelial cells (BAEC) and human foreskin fibroblasts (FF1). Sepharose beads were added to 12 well culture plates with sub-confluent monolayer of the cultured cells (100-300 beads were added to each well). The fraction of Sepharose beads attached to the monolayer was determined at different times.

[2] = test system: bovine aortal endothelial cells (BAEC); assay: as above; assay type: cell-based; conditions: for cell binding activity (BAEC), in words: 6 mg/ml
Method: as §1, §2

[3] = FIG. 3a, concentration not given

KGYKYSYKGGWTVFQRRMDGSVDFYRK [C-M-Fic2-K, C-M-Fic2 with the addition of a lysine group]
cell binding of FF1 reached [1, 3]: 100% | kinetic profile of cell binding of FF1 [1, 3]: good kinetic profile of cell binding (fast attachment)

GGWTVFQRRMDGSVDFYRK [M-Fic-K]
cell binding activity (FF1), in words ([1]; 6 mg peptide/ml): dramatic change in activity

KGYNYSYKSEMKVRPAK [C-Fic, b25 prints …]
extent of cell binding ([2]; 6 mg peptide/ml, after 96 hours of incubation, cell type not stated (FF1 or BAEC)): about 30% | cell binding activity (BAEC), in words [2]: completely looses reactivity | cell binding activity (BAEC), in words ([2]; listed as C-fic): did not attach; also recorded: some activity | cell binding activity (FF1), in words ([1]; 6 mg peptide/ml): no reactivity | cell binding activity (FF1), in words ([1]; 6 mg peptide/ml, listed as C-fic): did not attach; also recorded: looses its activity; also recorded: inactive | cell binding of FF1 reached ([1]; 12 mg peptide/ml, after 150 hours (FIG. 4b)): 100%

KTRWYSMKKTTMKIIPFNR [PreC, positive control peptide, reference compound]
cell binding of FF1 reached ([1]; 6 mg peptide/ml, FIG. 1): 100%

KGYKYSYKGGWTVFQRRMDGSVDFYR [C-M-Fic2]
cell binding of FF1 reached [1, 3]: 100% | kinetic profile of cell binding of FF1 [1, 3]: good kinetic profile of cell binding (fast attachment)

KGYKYSYKVSEMKVRPAK [C-Fic-a-K]
cell binding of FF1 reached ([1]; 6 mg peptide/ml, FIG. 1): 100%

GGWTVFQRRVDGSVDFYRK [M-Fic]
binding rate of BAEC at the lower concentration ([2]; 6 mg/ml compared with 12 mg/ml, FIG. 9): slight decrease | Nomarsky optic microscopy of peptide coated beads attached to endothelial cells (BAEC) ([2]; 3 weeks of incubation, x100, FIG. 12): formation of small tubes | activity in forming bead-cell aggregates and tube like structures ([2]; longer incubation times, FIGS. 10-12): highest activity | cell binding activity (FF1), in words ([1]; 6 mg peptide/ml): initially inferior to the positive control; also recorded: retains its activity | cell binding activity (FF1), in words ([1]; 6 mg peptide/ml, listed as M-fic): retain most of its activity | time to reach saturated cell binding ([1]; 6 mg/ml, FF1): ≤ 24 h | Nomarsky optic microscopy of peptide coated beads attached to FF1 ([1]; after 3 days of incubation, x100, FIG. 10): aggregates of cells and beads formed | time to saturated attachment ([1]; conclusions, cell type and concentration not stated): 72 h

KGYKYSYKVSEMKFQRRMDGSVDFYRK [C-M-Fic-a-K]
rate/kinetics of cell binding of FF1 compared with positive control PreC ([1]; 6 mg peptide/ml, FIG. 1, FIG. 2): accelerated the kinetics of cell binding
